The GI50 is the concentration at which growth is held to half of that of the control. Usually IC50 stands for the concentration that inhibits the measured activity by half.

Results on 6 molecules are retold here after patent US9422340B2, “Macrocyclic compounds useful as inhibitors of histone deacetylases” (The Regents of the University of Colorado, A Body Corporate, priority 2010, dated 2016).

Assay [1] relates to acetylated histone H3 in HCT116 cells. In words: Western blot of histone H3 hyperacetylation. The class given is cell-based, human. As to conditions: 8 hours, concentrations ranging from 1/μM to 100 nM. For orientation: In western blotting, separated proteins are transferred to a membrane and probed.
Experimental: Cell extracts were separated via SDS-PAGE electrophoresis and the resulting bands were detected utilizing anti-acetyl-H3 antibodies. DMSO-treated cells serve as a negative control, while the expression of GAPDH was used to show equal loading. […] Cells were treated with the indicated compound for 8 hours with concentrations ranging from 1/μM to 100 nM and immunoblotted with anti-acetylhistone H3 antibody.
For western blot analysis, total protein extracts were prepared by lysing cells in lysis buffer (50 mM Tris-Cl [pH 8.0], 5 mM EDTA, 150 mM NaCl, 1% NP-40, 0.1% SDS, and 1 mM phenylmethylsulfonyl fluoride). 50 μg of total soluble proteins were separated by SDS-PAGE. Proteins were transferred to nitrocellulose membrane and the membrane was blocked for 1 hour with 4% nonfat milk, followed by overnight incubation at 4° C. with primary antibodies against acetylated histone H3 (1:1000, Upstate, #06-599), Ezrin (1:10000, Sigma, E-8897), Glyceraldehyde 3-phosphate dehydrogenase (GAPDH; 1:20000, Santa Cruz, sc-47724), histone H3 (H3; 1:1000, Santa Cruz, sc-8654). Membranes were then incubated with peroxidase conjugated secondary antibodies for one hour at room temperature. Detection was performed using Super Signal WestDura. The expression of Ezrin and GAPDH was used as loading control.
For another assay, the system named is MDA-MB231. In words: Cell growth inhibition, crystal violet cell viability assay. It is filed as cell-based. As to conditions: Homo sapiens, read-out: Cell Growth Inhibition GI50, MDA-MB231. How it is done: (§1) Comparative analysis of the cytotoxic effect of largazole in human cancer cell lines HCT116, SW480 and MDA-MB231. HME were used as control. 8,000 cells were plated in 96-well plates where rows 1 and 10 were treated with DMSO, row 2 had no cells to establish background levels, rows 3-9 contained decreasing concentrations of compound. Cells were incubated with largazole for 48 hours, followed by staining with crystal violet dye. The absorbance at 588 nm was measured using a Tecan Sail re II plate reader. Experiments were performed in replicates of six, and concentration-response curves were generated by nonlinear least square regression analysis of the data using GraphPad Prism (San Diego, Calif.). The growth inhibition (GI50) for each compound was defined as a concentration of drug leading to a 50% reduction in A588 compared with controls
(§2) SW480, HCT116, and MDA-MB231 cell lines were purchased from the American Tissue Culture Collection. SW480 and MDA-MB231 cells were grown in Dulbecco's modified Eagle's medium supplemented with 10% fetal calf serum at 37° C. in a humidified 5% CO2 atmosphere. The HCT116 cell line was cultured in McCoy's 5a medium [ATCC; Cat. No. 30-2007] with 1.5 mM L-glutamine and 10% fetal bovine serum [ATCC; Cat. No. 30-2020]. HME cells (Clonetics, San Diego, Calif.; donor 4144) were cultured serum-free in Clonetics' recommended medium and supplements (52 μg/ml bovine pituitary extract, 0.5 μg/ml hydrocortisone, 0.01 μg/ml human epidermal growth factor, 5 μg/ml insulin, 50 μg/ml gentamicin and 50 ng/ml amphotericin-B).
(§3) 8,000 cells from different cancers were plated in flat-bottomed 96-well microplates. (Background control wells lacking the cells but containing the same volume of media were included in each assay plate). 24 hours after seeding, new media was added. To assess the in vitro cytotoxicity, each compound was dissolved in DMSO and prepared immediately before the experiments and was diluted into complete medium before addition to cell cultures. Test compounds were then added to the culture medium for designated decreasing concentrations (600 nM to 10 nM). Cell viability was determined 48 hours later using crystal violet dye (Sigma-Aldrich), which was solubilized in ethanol, and absorbance was measured at 588 nm using a Tecan Sail re II plate reader. Experiments were performed in replicates of six, and concentration-response curves were generated by nonlinear least square regression analysis of the data using GraphPad Prism (San Diego, Calif.). The growth inhibition (GI50) for each compound was defined as a concentration of drug leading to a 50% reduction in A588 compared with controls.
as §3, with “cancer or nontransformed cells” for “cancers”, “Safire” for “Sail re”, “concentration—response” for “concentration-response”

The next assay concerns HCT-116. The assay is described as above. As to conditions: Homo sapiens, read-out: Cell Growth Inhibition GI50, HCT-116. It is filed as cell-based. As to the method:
as §1, §2, §3
as §3, with “cancer or nontransformed cells” for “cancers”, “Safire” for “Sail re”, “concentration—response” for “concentration-response”

In another assay the test system is HME. The experiment in a line: Cell growth inhibition, crystal violet cell viability assay (control cells). It is filed as cell-based. As to conditions: read-out: Cell Growth Inhibition GI50, HME. How it is done: as §1
SW480, HCT116, and MDA-MB231 cell lines were purchased from the American Tissue Culture Collection. SW480 and MDA-MB231 cells were grown in Dulbecco's modified Eagle's medium supplemented with 10% fetal calf serum at 37° C. in a humidified 5% CO2 atmosphere. The HCT116 cell line was cultured in McCoy's 5a medium [ATCC; Cat. No. 30-2007] with 1.5 mM L-glutamine and 10% fetal bovine serum [ATCC; Cat. No. 30-2020]. […]
8,000 cells from different cancers were plated in flat-bottomed 96-well microplates. […] Cell viability was determined 48 hours later using crystal violet dye (Sigma-Aldrich), which was solubilized in ethanol, and absorbance was measured at 588 nm using a Tecan Sail re II plate reader. […]
8,000 cells from different cancer or nontransformed cells were plated in flat-bottomed 96-well microplates. […] Cell viability was determined 48 hours later using crystal violet dye (Sigma-Aldrich), which was solubilized in ethanol, and absorbance was measured at 588 nm using a Tecan Safire II plate reader. […]

The test system of assay [2] is HCT116 cells. The experiment in a line: DNA microarray gene expression profiles. As to conditions: SAHA (200 μM), Largazole (20 nM), Example 1 (20 nM). The class given is cell-based, human. How it is done:
FIG. 9A illustrates hierarchical clustering and heatmaps of changes in gene expression profiles in the HCT116 cells with indicated treatment. FIGS. 9B and 9C illustrate Venn diagrams showing unique and shared gene sets whose expression levels changed by more than 2 fold upon exposure to the indicated treatment at 6 hr (FIG. 9B) and 24 hr (FIG. 9C).
Expression values files for each sample were generated using the Robust Multichip Average (RMA) algorithm. Differential expression was determined using the R software package limma to generate linear models and empirical Bayesian statistics. Genes were considered differentially expressed if the P value, adjusted for multiple testing using the Benjamini and Hochberg method, was ≦5% and the log-2 fold change was […].
HCT116 cells were seeded in triplicate at approximately 60% confluency. […] Cells were incubated for 6 or 24 hours followed by a wash with phosphate-buffered saline. Total RNA was extracted using a RNeasy Mini RNA extraction kit (QIAGEN Inc., Valencia, Calif.) immediately after wash. Total RNA concentration was determined using a Lambda 800 UV/VIS spectrometer (PerkinElmer, Waltham, Mass.) and processed for labeling hybridization, wash, and scan at University of Colorado-Denver Health Sciences Center. Three GeneChip® Human Gene 1.0 ST (Affymetrix, Santa Clara, Calif.) arrays were used for each of the time points, cell types, and treatments for a total of 24 arrays. Expression values files for each sample were generated using the Robust Multichip Average (RMA) algorithm. Differential expression was determined using the R software package limma to generate linear models and empirical Bayesian statistics. Genes were considered differentially expressed if the P value, adjusted for multiple testing using the Benjamini and Hochberg method, was ≦5% and the log-2 fold change was […]. GeneSpring GX (Agilent, Santa Clara, Calif.) software was used for hierarchical clustering and generating heatmaps.

In another assay the test system is HCT 116 cells. As to conditions: Zeng et al. 2010; cited from earlier work.
The test system of the next assay is HDAC. As to conditions: read-out: IC50, HDAC inhibition in treated cells; cells treated with compound; Ying et al. 2008a; cited from earlier work.
Assay [3] relates to HCT116 cells. As to conditions: Ying et al. 2008b, read-out: GI50, antigrowth activity; cited from earlier work.
A further assay deals with melanoma cell lines. As to conditions: series of melanoma cell lines; Bowers et al. 2008; cited from earlier work.
Where [4] appears, read: MDA-MB-231, MDA-MB231, 48 hours, crystal violet, A588.
[5] abbreviates: HCT-116, 48 hours, crystal violet, A588.
Setting [6] is: HME control cells, 48 hours, crystal violet, A588.

Where two headings read alike, the source gives them in different places. Some results are limits rather than exact numbers.

For the molecule `CCCCCCCC(=O)SCC/C=C/[C@@H]1CC(=O)NCc2nc(cs2)C(=O)NC(C)(C)C(=O)N[C@@H](C(C)C)C(=O)O1` [Example 1, S-(E)-4-((7S,10S)-7-isopropyl-4,4-dimethyl-2,5,8,12-tetraoxo-9-oxa-16-thia-3,6,13,18-tetraazabicyclo[13.2.1]octadeca-1(17),15(18)-dien-10-yl)but-3-enyl octanethioate], the “Deacetylase inhibition, dose response of H3 acetylation (FIG. 8B)” value in assay [1] is “slightly more potent deacetylase inhibitors than largazole (L) and SAHA”. Further, the GI50 in the assay with MDA-MB231 (setting [4]) is 53 nM; with HCT-116 (setting [5]), 16 ± 2 nM; in the assay on HME (setting [6]), at least 600 nM. Also, the “# of Genes 2 Fold-Change in comparison to DMSO control” value is reported as 421 in the assay with HCT116 cells [2] (6 hr) and 174 in the assay on HCT116 cells [2] (24 hr).

Turning to `CCCCCCCC(=O)SCC/C=C/[C@@H]1CC(=O)NCc2nc(co2)C(=O)NC(C)(C)C(=O)N[C@@H](C)C(=O)O1` [Example 4, S-(E)-4-((7S,10S)-4,4,7-trimethyl-2,5,8,12-tetraoxo-9,16-dioxa-3,6,13,18-tetraazabicyclo[13.2.1]octadeca-1(17),15(18)-dien-10-yl)but-3-enyl octanethioate], the GI50 in the assay on MDA-MB231 (setting [4]) is 53 ± 3 nM; in the assay on HCT-116 (setting [5]), 17 nM; with HME (setting [6]), at least 600 nM.

In the case of `CCCCCCCC(=O)SCC/C=C/[C@@H]1CC(=O)NCc2nc(cs2)C2=N[C@@](C)(CS2)C(=O)N[C@@H](C(C)C)C(=O)O1` [Largazole], the GI50 in the assay on MDA-MB231 (MDA-MB-231, 48 h) is 71 ± 8 nM; with HCT-116 (HCT-116, 48 h), 28 nM; in the assay on HME (48 h), at least 600 nM. Also, the “# of Genes 2 Fold-Change in comparison to DMSO control” value with HCT116 cells [2] (6 hr) was 529; in the assay with HCT116 cells [2] (24 hr), 566.

`CCCCCCCC(=O)SCCC=CC1CC(=O)NCc2nc(cs2)C2=NC(C)(CS2)C(=O)NC(CC(C)C)C(=O)O1` (stereo not shown) [Leu 1]: the GI50 with HCT 116 cells was 560 nM.

As to `CCCCCCCC(=O)SCCC=CC1CC(=O)NCc2nc(cs2)C2=NC(C)(CS2)C(=O)NC(Cc2ccccc2)C(=O)O1` (stereo not shown) [Phe 1], the concentration for 50% growth inhibition (GI50) in the assay on HCT 116 cells was 260 nM.

In the case of largazole thiol, the IC50 with HDAC was 209 nM; in the assay on melanoma cell lines it was 380 to 2600 nM. For the same molecule, the GI50 in the assay on HCT116 cells [3] is 38 nM.
